Source: the NIST ThermoML archive (doi:10.1021/je300835h)
Numbers after ± are expanded uncertainties. Values belong to the molecule of their own block, whether it stands above or below them.

Conditions: Liquid, Ebulliometric method (Recirculating still)

vapor or sublimation pressure (337.75 K): 101.3 ± 1 kPa
SMILES: CO [methanol]

vapor or sublimation pressure (390.65 K): 101.3 ± 1 kPa
SMILES: CCCCO [butan-1-ol]

SMILES: C=COC(C)=O [vinyl acetate]
vapor or sublimation pressure (345.75 K): 101.3 ± 1 kPa
